# In US4591552A, “Detection of hepatitis B surface antigen (or antibody to same) with labeled synthetic peptide” (priority 1982, dated 1986):
# System: antiserum to the synthetic peptide
# Assay: Competition immunoassay: binding to Staphylococci (protein A) of β-galactosidase-conjugated peptide 135-155 complexed with homologous antibodies
# Design: species or system rabbit
# Details: control antigens
# Procedure: It is known that immunoglobulins of the IgG class attach to Staphylococci carrying protein A. If the immunoglobulins are bound to labeled antigens thus forming immune complexes, such (labeled) complexes attach to the Staphylococci. […] The above forms the basis of the following test:
# 250 μl of mixtures containing various unlabeled antigens, 1:125 diluted antiserum to the synthetic peptide (see Example 3 above), 1:8,000 diluted peptide-β-galactosidase conjugate (see Example 2 above) and 50 mg/ml of bovine serum albumin (BSA) were each incubated for 30 minutes at 37° C. and mixed with an equal volume of a 2.5% suspension of Staphylococci (Pansorbin, Calbiochem, LaJolla, Calif.). The bacteria were pelleted, washed with tris-buffered saline, and the adsorbed β-galactosidase corresponding to the enzyme-peptide conjugate was determined fluorometrically as described by Neurrath and Strick, J. Virol. Methods, supra. The fluorescence in the absence of unlabeled competing antigens was 900.
substance,measurement,value
synthetic insulin A chain: control antigen,inhibitory effect on binding of β-galactosidase activity to the bacteria,did not have any inhibitory effect
